Experimental data: patent US10959992B2, “Methods of treatment of asthma and COPD” (Bridge Pharma, Inc., priority 2019, dated 2021)
Converted amounts (≈) assume the structure as drawn. Like-named read-outs stand apart in the source and are kept apart here.

Legend:
Trichophyton rubrum = test: Antimicrobial activity (MIC), Trichophyton rubrum; type: cell-based; conditions: Mold: Tr, MIC refers to lethal concentrations
Klebsiella pnemoniae = test: Antimicrobial activity (MIC), Klebsiella pnemoniae; type: cell-based; conditions: Bacteria: Kp, MIC refers to lethal concentrations
IL-13 = test: PHA-induced release of IL-13 from human buffy coats; type: cell-based; conditions: PHA 5 μg/ml, 16 hours, inhibition
Procedure: (§1) The study was conducted in two phases. The first phase included optimization of the test methodology and included also dose-range finding studies, using buffy coats from 3 human donors, stimulated with phytohemagglutinin (PHA). The concentrations of the test article and the duration of exposure were optimized to obtain acceptable dose-response ratios. Following optimization of the test conditions, a final protocol was issued. In the Main Study, buffy coats from 5 healthy human male donors were stimulated with PHA, 5 μg/ml.
(§2) The inhibitory effects of three concentrations of NK and one concentration of ketotifen were evaluated in the Main Study. The buffy coats were resuspended in assay media and were pre-incubated for 30 min with either vehicle/saline, ketotifen (10 μM) or norketotifen (1.0; 10 or 100 μM). Following these preincubations, the white blood cell suspensions were stimulated for 16 hours with PHA, 5 μg/ml. The cell system supernatants were then harvested and stored frozen.

PAF-induced eosinophilia = test: PAF-induced pulmonary eosinophil accumulation after continuous subcutaneous dosing; type: in vivo, Sprague-Dawley rats; conditions: sc 1.0 mg/kg/day for six days, PAF-treated rats
Procedure: Male Sprague-Dawley rats, 400-600 g, were used in these studies.
The study described here used subcutaneous administration of norketotifen and ketotifen by Alzet® osmotic pumps. The rats were administered either RS-norketotifen hydrogen fumarate (1.0 mg/kg/day) or RS-ketotifen hydrogen fumarate (1.0 mg/kg/day) or saline. After five days of sc infusions of test articles and the vehicle, the animals were injected, i.p. with 10 μg PAF (platelet aggregating factor) in 0.25% bovine serum albumin (BSA) in saline. The subcutaneous infusions of test articles or vehicle were continued for another twenty-four hours and the animals were then sacrificed by intraperitoneal injections of a barbiturate. The tracheae of the euthanized animals were exposed and cannulated and aliquots (6×10 ml) of a Tyrode solution were successively introduced into the lungs and aspirated by gentle compression of the thorax. The total recovery of lung fluid was usually above 80%. The cell suspensions were concentrated by low speed centrifugation (200 g for 10 min) and the resulting cell pellet was resuspended in 1 ml of a Tyrode solution. Total cell counts were performed after dilution in Turks fluid, fixation in methanol and Leishman staining.
The study shown here used norketotifen, ketotifen, and saline (control) after continuous dosing with Alzet® Osmotic pumps.

Aspergillus fumigatus = test: Antimicrobial activity (MIC), Aspergillus fumigatus; type: cell-based; conditions: Fungi: Af, MIC refers to lethal concentrations
IL-10 = test: PHA-induced release of IL-10 from human buffy coats; type: cell-based; conditions: PHA 5 μg/ml, 16 hours, inhibition
Procedure: as §1, §2

Streptococcus pneumoniae = test: Antimicrobial activity (MIC), Streptococcus pneumoniae; type: cell-based; conditions: Bacteria: Sp, MIC refers to lethal concentrations
TNF-α = test: PHA-induced release of TNF-α from human buffy coats; type: cell-based; conditions: PHA 5 μg/ml, 16 hours, inhibition
Procedure: as §1, §2

Staphylococcus aureus = test: Antimicrobial activity (MIC), Staphylococcus aureus; type: cell-based; conditions: Bacteria: Sa, MIC refers to lethal concentrations
IL-1β = test: PHA-induced release of IL-1β from human buffy coats; type: cell-based; conditions: PHA 5 μg/ml, 16 hours, inhibition
Procedure: as §1, §2

[1] = test system: oxazolone-induced increase in ear thickness; test: Oxazolone test of immunosuppression (ear thickness); type: in vivo, BALB/c mice; conditions: for Increase in ear thickness (mm): control 0.153; for Increase in ear thickness (%): control 100.0
Procedure: Male BALB/c mice, 20-24 grams, 7-12 weeks, were used. The sensitization dosing (Day 1) consisted of painting the ventral portion of the pre-shaved abdominal skin with 0.1 ml of 3.0% oxazolone in 70% ethanol. Test articles were administered orally in 1.0% methyl-cellulose, starting on Day 1 and continuing for 10 consecutive days. The challenge dosing consisted of the application of 0.05 ml of 3.0% oxazolone in 70% ethanol on both sides of the outer pinna of the right ear. The thickness of both ears of all animals was measured with a calliper before the challenge dose and 24 hours after the administration of the challenge dose (Day 10). The ear thickness of untreated mice was 0.19 to 0.20 mm.
Justification of the model: The classic oxazolone test method was used with minor modifications. This method has been used for over 40 years in numerous drug development projects.

[2] = Lung/plasma distribution of norketotifen in dogs; type: in vivo, Beagle dogs; conditions: for Post-dose Lung Concentration / Post-dose Plasma Concentration / Kp: dog; for Post-dose Lung Concentration / Post-dose Plasma Concentration: oral 8.0 mg/kg/day NK-FB for four days; for Kp: female, Beagle, lung/plasma, 11.46 mg/kg/day
Procedure: One group (N=3) of female Beagle dogs (8 to 10 kg/24 to 28 months) were administered racemic norketotifen hydrogen fumarate (RS-NK-HF) 11.46 mg/kg/day for 4 consecutive days. (11.46 mg of NK-HF is equal to 8.0 mg of the free base (RS-NK-FB).
Plasma samples were collected daily on Days 2, 3 and 4. The last blood samples were taken four hours after dosing on Day 4. Lung and plasma concentrations of norketotifen were determined using a qualified LC-MS-MS analytical method. LLQ was <0.5 ng/ml. Immediately after blood collection on Day 4, all animals were euthanized with an overdose of pentobarbital, administered intravenously, followed by exsanguination. Lung tissue samples (approximately 1 g each) were collected from each animal from the left and right pulmonary lobes, samples were trimmed and dried of any access blood using absorbent paper, weighed and then kept in conical tubes frozen on dry ice and stored at −80° C. pending analysis. Six samples from each animal (3 samples per side) were analyzed.

[3] = 10.0 mg/kg/day oral for 10 days
[4] = 30.0 mg/kg/day oral for 10 days

Structure (SMILES): O=C1Cc2ccccc2C(=C2CCNCC2)c2ccsc21 (racemic) [norketotifen]
- MIC (Trichophyton rubrum): 500 µg/mL (≈ 1690 µM)
- MIC (Klebsiella pnemoniae): 500 µg/mL (≈ 1690 µM)
- Effect on PHA-induced release of IL-13 (%) (IL-13; 1 uM): 0.00%
- Effect on PHA-induced release of IL-13 (%) (IL-13; 10 uM): 34.49^1%
- Effect on PHA-induced release of IL-13 (%) (IL-13; 100 uM): 74.25^1%
- Reduction of eosinophil counts below the baseline (saline control) level (PAF-induced eosinophilia): 26%
- MIC (Aspergillus fumigatus): 4000 µg/mL (≈ 13500 µM)
- Effect on PHA-induced release of IL-10 (%) (IL-10; 1 uM): 12.71^2%
- Effect on PHA-induced release of IL-10 (%) (IL-10; 10 uM): 24.80^2%
- Effect on PHA-induced release of IL-10 (%) (IL-10; 100 uM): 90.40^1%
- MIC (Streptococcus pneumoniae): 500 µg/mL (≈ 1690 µM)
- MIC (Streptococcus pneumoniae; Streptococcus pneumoniae, read-out: MIC): 500 µg/mL (≈ 1690 µM)
- Effect on PHA-induced release of TNF-α (%) (TNF-α; 1 uM): 45.57^2%
- Effect on PHA-induced release of TNF-α (%) (TNF-α; 10 uM): 63.07^1%
- Effect on PHA-induced release of TNF-α (%) (TNF-α; 100 uM): 95.68^1%
- MIC (Staphylococcus aureus): 500 µg/mL (≈ 1690 µM)
- Effect on PHA-induced release of IL-1β (%) (IL-1β; 1 uM): 0.00%
- Effect on PHA-induced release of IL-1β (%) (IL-1β; 10 uM): 16.20%
- Effect on PHA-induced release of IL-1β (%) (IL-1β; 100 uM): 57.00^1%
- Immunosuppression (%) [1, 3]: 3.9%
- Increase in ear thickness (mm) [1, 3]: 0.147 mm
- Increase in ear thickness (%) [1, 3]: 96.1%
- Immunosuppression (%) [1, 4]: 8.5%
- Increase in ear thickness (mm) [1, 4]: 0.140 mm
- Increase in ear thickness (%) [1, 4]: 91.5%
- Immuno-suppressant activity (conclusion in words) ([1]; daily oral dosing for 10 days to mice, RS-norketotifen 10 or 30 mg/kg, prednisolone at 10 times lower doses): did not induce immuno-suppressant activity
- Post-dose Lung Concentration ([2]; animal 001, Day 4): 23590 ng/g
- Post-dose Plasma Concentration ([2]; animal 001, Day 4): 301 ng/mL
- Post-dose Lung Concentration ([2]; animal 002, Day 4): 79546 ng/g
- Post-dose Plasma Concentration ([2]; animal 002, Day 4): 1651 ng/mL
- Post-dose Lung Concentration ([2]; animal 003, Day 4): 61093 ng/g
- Post-dose Plasma Concentration ([2]; animal 003, Day 4): 733 ng/mL
- Kp ([2]; oral, animal 001, Day 4, read-out: Lung / Plasma Ratio in Dogs): 78.4
- Kp ([2]; oral, animal 002, Day 4, read-out: Lung / Plasma Ratio in Dogs): 48.2
- Kp ([2]; oral, animal 003, Day 4, read-out: Lung / Plasma Ratio in Dogs): 83.3
- Kp ([2]; po, mean of three dogs, Day 4, once daily oral dosing, read-out: Lung / Plasma Ratio in Dogs, Mean ± SEM): 70
- Lung / Plasma Ratio in Dogs, Mean ± SEM ([2]; mean of three dogs, Day 4, once daily oral dosing, listed as NK): 70.0 ± 11.0
